This is an account of results in PubChem BioAssay (NCI).

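Briefly, cells in 96-well plates were exposed to five compound concentrations for 48 h, and endpoints were estimated by linear interpolation. GI50: concentration for 50% inhibition of growth. TGI: total growth inhibition.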 Bounds are passed on as bounds.

Among the test systems are CAKI-1 renal; HCT-116 colon; LOX IMVI melanoma; NCI-H226 lung; NCI-H460 lung; OVCAR-4 ovarian; SK-MEL-2 melanoma; SNB-19 CNS; SW-620 colon; UACC-257 melanoma.
What all share (experiment): inhibition of tumour cell growth, NCI panel, 48 h

On to `Oc1cccc(-c2nc(-c3ccccc3)[nH]c2-c2ccncc2)c1`, for which the GI50 was 18.7 µM with CAKI-1 renal; 9.91 µM in the test on HCT-116 colon; 8.82 µM in the test with LOX IMVI melanoma; more than 19 µM with NCI-H226 lung; 11.6 µM in the test on NCI-H460 lung; 10.5 µM in the test on OVCAR-4 ovarian. Moreover, the GI50 in the test with SK-MEL-2 melanoma is 6.91 µM; with SNB-19 CNS, more than 25 µM; in the test on SW-620 colon, 9.39 µM; in the test with UACC-257 melanoma, 2.97 µM. Moreover, the TGI with CAKI-1 renal, with HCT-116 colon, in the test with LOX IMVI melanoma, in the test with NCI-H226 lung, in the test on NCI-H460 lung and in the test with OVCAR-4 ovarian was more than 25 µM throughout. The TGI with SK-MEL-2 melanoma is 18.9 µM; in the test on SNB-19 CNS, more than 25 µM; in the test on SW-620 colon, more than 23.4 µM; in the test with UACC-257 melanoma, 14 µM.

Consider `Cc1cc2c(cc1Cl)SC(C(=O)c1ccc(Cl)c(Cl)c1)NS2(=O)=O` (centres undefined), for which the GI50 in the test on CAKI-1 renal is 97.4 µM; in the test with HCT-116 colon it was 21.9 µM; in the test with LOX IMVI melanoma it was 22.6 µM; in the test with NCI-H226 lung, 49.9 µM; in the test with NCI-H460 lung, 23.5 µM; in the test with OVCAR-4 ovarian it was 27.1 µM. Moreover, the GI50 is 40.2 µM in the test with SK-MEL-2 melanoma, 35 µM in the test with SNB-19 CNS, 27.6 µM with SW-620 colon and 67.2 µM in the test with UACC-257 melanoma. For the same molecule, the TGI in the test on CAKI-1 renal was more than 100 µM; in the test with HCT-116 colon, 40.8 µM; in the test with LOX IMVI melanoma, 48.7 µM; in the test on NCI-H226 lung, more than 100 µM; in the test with NCI-H460 lung it was 50.7 µM; in the test on OVCAR-4 ovarian, 71.5 µM. Moreover, the TGI is more than 100 µM in the test with SK-MEL-2 melanoma, more than 100 µM with SNB-19 CNS, 72.9 µM in the test on SW-620 colon and more than 100 µM in the test on UACC-257 melanoma.

In the case of `N=C1C(c2nc3ccccc3s2)=C(O)CN1c1cc(Cl)cc(Cl)c1`, the GI50 in the test with CAKI-1 renal was more than 100 µM; with HCT-116 colon, 87.2 µM; in the test with LOX IMVI melanoma, more than 100 µM; in the test with NCI-H226 lung, more than 100 µM; with NCI-H460 lung it was 18.5 µM; with OVCAR-4 ovarian it was 37.4 µM. In addition, the GI50 is more than 100 µM with SK-MEL-2 melanoma, more than 100 µM with SNB-19 CNS, more than 100 µM with SW-620 colon and 40.2 µM in the test on UACC-257 melanoma. Further, the TGI with CAKI-1 renal, in the test on HCT-116 colon, in the test on LOX IMVI melanoma, in the test on NCI-H226 lung, in the test with NCI-H460 lung and with OVCAR-4 ovarian was more than 100 µM in each case. Also, the TGI in the test on SK-MEL-2 melanoma, in the test on SNB-19 CNS, with SW-620 colon and with UACC-257 melanoma was more than 100 µM throughout.

As to `CCN1C(=O)N(CC)C2C1NN=c1s/c(=C\c3ccc(OC)cc3)c(=O)n12` (centres undefined), the GI50 in the test on CAKI-1 renal was 0.0577 µM; in the test with HCT-116 colon it was 0.188 µM; with LOX IMVI melanoma, 0.233 µM; in the test with NCI-H226 lung, 1.72 µM; in the test with NCI-H460 lung, 0.242 µM; with OVCAR-4 ovarian, 0.614 µM. For the same molecule, the GI50 in the test on SK-MEL-2 melanoma is 1.66 µM; with SNB-19 CNS it was 0.471 µM; in the test on SW-620 colon, 0.136 µM; in the test with UACC-257 melanoma it was more than 100 µM. Besides, the TGI with CAKI-1 renal is more than 80.2 µM; with HCT-116 colon, more than 100 µM; with LOX IMVI melanoma, more than 100 µM; in the test with NCI-H460 lung it was more than 100 µM; in the test on OVCAR-4 ovarian it was more than 100 µM; with SK-MEL-2 melanoma, more than 100 µM. Moreover, the TGI with SNB-19 CNS, in the test with SW-620 colon and in the test on UACC-257 melanoma was more than 100 µM in each case.

Take `COc1cc2c(cc1O)C1CC(CC3CCCCN31)OC(=O)/C=C\c1ccc(O)c-2c1` (centres undefined): the TGI in the test with CAKI-1 renal is 66.4 µM; in the test with HCT-116 colon, more than 100 µM; in the test with LOX IMVI melanoma it was 32.3 µM; with NCI-H226 lung, more than 100 µM; with NCI-H460 lung, more than 100 µM; in the test on OVCAR-4 ovarian it was more than 100 µM. Further, the TGI in the test with SK-MEL-2 melanoma was 72.1 µM; with SNB-19 CNS, more than 100 µM; in the test on SW-620 colon, more than 100 µM; in the test on UACC-257 melanoma, 39.7 µM.

In the case of `CCOC(=O)c1cc(-c2ccccc2)[nH]c1N/N=C/c1c(Cl)cccc1Cl`, the GI50 in the test with CAKI-1 renal is 0.409 µM; in the test with HCT-116 colon, 0.729 µM; in the test on LOX IMVI melanoma it was 3.05 µM; in the test on NCI-H226 lung, 1.5 µM; with NCI-H460 lung, 0.909 µM; with OVCAR-4 ovarian it was 13.4 µM. Besides, the GI50 with SK-MEL-2 melanoma is 0.961 µM; in the test on SNB-19 CNS, 3.06 µM; in the test with SW-620 colon, 0.433 µM; in the test with UACC-257 melanoma, 49.2 µM. In addition, the TGI in the test with CAKI-1 renal was 31.1 µM; with HCT-116 colon, more than 36.7 µM; in the test with LOX IMVI melanoma it was more than 100 µM; in the test on NCI-H226 lung, 12.4 µM; in the test with NCI-H460 lung, more than 61.7 µM; in the test with OVCAR-4 ovarian, more than 100 µM. The TGI with SK-MEL-2 melanoma is 87.5 µM; in the test with SNB-19 CNS, more than 60.4 µM; in the test with SW-620 colon, more than 81.2 µM; in the test with UACC-257 melanoma, more than 100 µM.
